Measurements from patent publication US9963442B2, “Pyridones as herbicides” (E I DU PONT DE NEMOURS AND COMPANY, priority 2014, dated 2018).

Experiments:
Format in all cases: in vivo
Conditions in all cases: scale 0 to 100, 0 is no effect, 100 is complete control
[1] = tested on: barnyardgrass (Echinochloa crus-galli); assay: Test C preemergence
Description: (§1) Seeds of plant species selected from blackgrass (Alopecurus myosuroides), Italian ryegrass (Lolium multiflorum), winter wheat (Triticum aestivum), galium (catchweed bedstraw, Galium aparine), corn (Zea mays), large (Lg) crabgrass (Digitaria sanguinalis), giant foxtail (Setaria faberii), johnsongrass (Sorghum halepense), lambsquarters (Chenopodium album), morningglory (Ipomoea coccinea), yellow nutsedge (Cyperus esculentus), pigweed (Amaranthus retroflexus), ragweed (common ragweed, Ambrosia elatior), soybean (Glycine max), barnyardgrass (Echinochloa crus-galli), oilseed rape (Brassica napus), waterhemp (common waterhemp, Amaranthus rudis), and velvetleaf (Abutilon theophrasti) were planted into a blend of loam soil and sand and treated preemergence with test chemicals formulated in a non-phytotoxic solvent mixture which included a surfactant. At the same time, plants selected from these crop and weed species and also chickweed (common chickweed, Stellaria media), kochia (Kochia scoparia), and wild oat (Avena fatua), were planted in pots containing Sunshine Redi-Earth® planting medium comprising spaghnum peat moss, vermiculite, starter nutrients and dolomitic limestone and treated with postemergence applications of test chemicals formulated in the same manner. Plants ranged in height from 2 to 18 cm (1- to 4-leaf stage) for postemergence treatments. Treated plants and controls were maintained in a greenhouse for 13 to 15 days, after which time all species were compared to controls and visually evaluated. Plant response ratings, summarized in Table C, are based on a scale of 0 to 100 where 0 is no effect and 100 is complete control. A dash (-) response means no test result.

[2] = tested on: yellow nutsedge (Cyperus esculentus); assay: Test C preemergence
Description: as §1

[3] = tested on: morningglory (Ipomoea coccinea); assay: Test C preemergence
Description: as §1

[4] = tested on: velvetleaf (Abutilon theophrasti); assay: Test C preemergence
Description: as §1

[5] = tested on: ragweed (common ragweed, Ambrosia elatior); assay: Test C preemergence
Description: as §1

[6] = tested on: winter wheat (Triticum aestivum); assay: Test C preemergence
Description: as §1

[7] = tested on: oilseed rape (Brassica napus); assay: Test C preemergence
Description: as §1

corn (Zea mays) [8] = assay: Test C preemergence
Description: as §1

[9] = tested on: Italian ryegrass (Lolium multiflorum); assay: Test C preemergence
Description: as §1

[10] = tested on: barnyardgrass (Echinochloa crus-galli); assay: Test C postemergence
Description: as §1

[11] = tested on: waterhemp (common waterhemp, Amaranthus rudis); assay: Test C postemergence
Description: as §1

[12] = tested on: yellow nutsedge (Cyperus esculentus); assay: Test C postemergence
Description: as §1

[13] = tested on: morningglory (Ipomoea coccinea); assay: Test C postemergence
Description: as §1

[14] = tested on: galium (catchweed bedstraw, Galium aparine); assay: Test C postemergence
Description: as §1

soybean (Glycine max) = assay: Test C postemergence
Description: as §1

[15] = tested on: velvetleaf (Abutilon theophrasti); assay: Test C postemergence
Description: as §1

kochia (Kochia scoparia) = assay: Test C postemergence
Description: as §1

[16] = tested on: blackgrass (Alopecurus myosuroides); assay: Test C postemergence
Description: as §1

[17] = tested on: winter wheat (Triticum aestivum); assay: Test C postemergence
Description: as §1

[18] = tested on: johnsongrass (Sorghum halepense); assay: Test C postemergence
Description: as §1

corn (Zea mays) [19] = assay: Test C postemergence
Description: as §1

[20] = tested on: Italian ryegrass (Lolium multiflorum); assay: Test C postemergence
Description: as §1

[21] = tested on: giant foxtail (Setaria faberii); assay: Test C postemergence
Description: as §1

O=c1cccc(Oc2ncc(Cl)cn2)n1-c1ccc(Cl)cc1 [Compound 1, 1-(4-chlorophenyl)-6-[(5-chloro-2-pyrimidinyl)oxy]-2(1H)-pyridinone]
Plant response rating, Barnyardgrass ([1]; 16 g ai/ha): 5
Plant response rating, Barnyardgrass ([1]; 31 g ai/ha): 20
Plant response rating, Barnyardgrass ([1]; 62 g ai/ha): 40
Plant response rating, Barnyardgrass ([1]; 125 g ai/ha): 75
Plant response rating, Nutsedge, Yellow ([2]; 16 g ai/ha): 0
Plant response rating, Nutsedge, Yellow ([2]; 31 g ai/ha): 0
Plant response rating, Nutsedge, Yellow ([2]; 62 g ai/ha): 0
Plant response rating, Nutsedge, Yellow ([2]; 125 g ai/ha): 5
Plant response rating, Morningglory ([3]; 16 g ai/ha): 0
Plant response rating, Morningglory ([3]; 31 g ai/ha): 0
Plant response rating, Morningglory ([3]; 62 g ai/ha): 0
Plant response rating, Morningglory ([3]; 125 g ai/ha): 15
Plant response rating, Velvetleaf ([4]; 16 g ai/ha): 0
Plant response rating, Velvetleaf ([4]; 31 g ai/ha): 0
Plant response rating, Velvetleaf ([4]; 62 g ai/ha): 5
Plant response rating, Velvetleaf ([4]; 125 g ai/ha): 10
Plant response rating, Ragweed ([5]; 16 g ai/ha): 0
Plant response rating, Ragweed ([5]; 31 g ai/ha): 0
Plant response rating, Ragweed ([5]; 62 g ai/ha): 10
Plant response rating, Ragweed ([5]; 125 g ai/ha): 0
Plant response rating, Wheat ([6]; 16 g ai/ha): 0
Plant response rating, Wheat ([6]; 31 g ai/ha): 0
Plant response rating, Wheat ([6]; 62 g ai/ha): 0
Plant response rating, Wheat ([6]; 125 g ai/ha): 0
Plant response rating, Oilseed Rape ([7]; 16 g ai/ha): 0
Plant response rating, Oilseed Rape ([7]; 31 g ai/ha): 0
Plant response rating, Oilseed Rape ([7]; 62 g ai/ha): 10
Plant response rating, Oilseed Rape ([7]; 125 g ai/ha): 60
Plant response rating, Corn (corn (Zea mays) [8]; 16 g ai/ha): 0
Plant response rating, Corn (corn (Zea mays) [8]; 31 g ai/ha): 0
Plant response rating, Corn (corn (Zea mays) [8]; 62 g ai/ha): 0
Plant response rating, Corn (corn (Zea mays) [8]; 125 g ai/ha): 0
Plant response rating, Ryegrass, Italian ([9]; 16 g ai/ha): 0
Plant response rating, Ryegrass, Italian ([9]; 31 g ai/ha): 0
Plant response rating, Ryegrass, Italian ([9]; 62 g ai/ha): 5
Plant response rating, Ryegrass, Italian ([9]; 125 g ai/ha): 60
Plant response rating, Barnyardgrass ([10]; 16 g ai/ha): 5
Plant response rating, Barnyardgrass ([10]; 31 g ai/ha): 5
Plant response rating, Barnyardgrass ([10]; 62 g ai/ha): 10
Plant response rating, Barnyardgrass ([10]; 125 g ai/ha): 10
Plant response rating, Waterhemp ([11]; 16 g ai/ha): 25
Plant response rating, Waterhemp ([11]; 31 g ai/ha): 80
Plant response rating, Waterhemp ([11]; 62 g ai/ha): 70
Plant response rating, Waterhemp ([11]; 125 g ai/ha): 90
Plant response rating, Nutsedge, Yellow ([12]; 16 g ai/ha): 5
Plant response rating, Nutsedge, Yellow ([12]; 31 g ai/ha): 5
Plant response rating, Nutsedge, Yellow ([12]; 62 g ai/ha): 5
Plant response rating, Nutsedge, Yellow ([12]; 125 g ai/ha): 10
Plant response rating, Morningglory ([13]; 16 g ai/ha): 10
Plant response rating, Morningglory ([13]; 31 g ai/ha): 40
Plant response rating, Morningglory ([13]; 62 g ai/ha): 40
Plant response rating, Morningglory ([13]; 125 g ai/ha): 60
Plant response rating, Galium ([14]; 16 g ai/ha): 40
Plant response rating, Galium ([14]; 31 g ai/ha): 45
Plant response rating, Galium ([14]; 62 g ai/ha): 80
Plant response rating, Galium ([14]; 125 g ai/ha): 85
Plant response rating, Soybean (soybean (Glycine max); 16 g ai/ha): 15
Plant response rating, Soybean (soybean (Glycine max); 31 g ai/ha): 35
Plant response rating, Soybean (soybean (Glycine max); 62 g ai/ha): 30
Plant response rating, Soybean (soybean (Glycine max); 125 g ai/ha): 70
Plant response rating, Velvetleaf ([15]; 16 g ai/ha): 10
Plant response rating, Velvetleaf ([15]; 31 g ai/ha): 10
Plant response rating, Velvetleaf ([15]; 62 g ai/ha): 20
Plant response rating, Velvetleaf ([15]; 125 g ai/ha): 25
Plant response rating, Kochia (kochia (Kochia scoparia); 16 g ai/ha): 90
Plant response rating, Kochia (kochia (Kochia scoparia); 31 g ai/ha): 90
Plant response rating, Kochia (kochia (Kochia scoparia); 62 g ai/ha): 95
Plant response rating, Kochia (kochia (Kochia scoparia); 125 g ai/ha): 95
Plant response rating, Blackgrass ([16]; 16 g ai/ha): 5
Plant response rating, Blackgrass ([16]; 31 g ai/ha): 5
Plant response rating, Blackgrass ([16]; 62 g ai/ha): 5
Plant response rating, Blackgrass ([16]; 125 g ai/ha): 5
Plant response rating, Wheat ([17]; 16 g ai/ha): 0
Plant response rating, Wheat ([17]; 31 g ai/ha): 5
Plant response rating, Wheat ([17]; 62 g ai/ha): 5
Plant response rating, Wheat ([17]; 125 g ai/ha): 10
Plant response rating, Johnsongrass ([18]; 16 g ai/ha): 0
Plant response rating, Johnsongrass ([18]; 31 g ai/ha): 5
Plant response rating, Johnsongrass ([18]; 62 g ai/ha): 5
Plant response rating, Johnsongrass ([18]; 125 g ai/ha): 5
Plant response rating, Corn (corn (Zea mays) [19]; 16 g ai/ha): 5
Plant response rating, Corn (corn (Zea mays) [19]; 31 g ai/ha): 5
Plant response rating, Corn (corn (Zea mays) [19]; 62 g ai/ha): 10
Plant response rating, Corn (corn (Zea mays) [19]; 125 g ai/ha): 10
Plant response rating, Ryegrass, Italian ([20]; 16 g ai/ha): 5
Plant response rating, Ryegrass, Italian ([20]; 31 g ai/ha): 5
Plant response rating, Ryegrass, Italian ([20]; 62 g ai/ha): 5
Plant response rating, Ryegrass, Italian ([20]; 125 g ai/ha): 10
Plant response rating, Foxtail, Giant ([21]; 16 g ai/ha): 5
Plant response rating, Foxtail, Giant ([21]; 31 g ai/ha): 10
Plant response rating, Foxtail, Giant ([21]; 62 g ai/ha): 10
Plant response rating, Foxtail, Giant ([21]; 125 g ai/ha): 10
